Source: PMC10419416, “Fighting Pseudomonas aeruginosa Infections: Antibacterial and Antibiofilm Activity of D-Q53 CecB, a Synthetic Analog of a Silkworm Natural Cecropin B Variant” (International Journal of Molecular Sciences, 2023)
Non-standard residues stand in square brackets, D forms with d. Residues, ends and D or L forms follow the SMILES beside them. No end group written: not given here.

What was measured:
[1] = test system: P. aeruginosa ATCC 25668 (lasI, rpoS, fimX, pslA, pelA, algD); assay: Real-time qPCR of genes involved in biofilm formation; type: cell-based, Pseudomonas aeruginosa; settings: 20 h; 1/2 MIC L- or 1/4 MIC D-Q53 CecB; normalised to rplU
Procedure: Bacteria were collected after centrifugation and stored in Trizol Reagent (Ambion, Waltham, MA, USA) at −80 °C, until use. Total RNA was extracted using the Direct-zol RNA MiniPrep kit (Zymo Research, Irvine, CA, USA). The complementary DNA (cDNA) was synthesized using the Maxima™ H Minus cDNA Synthesis Master Mix with dsDNase (Molecular biology, Thermo Scientific). Each qPCR reaction was performed in triplicate, using the GoTaq qPCR Master Mix (Promega, Madison, WI, USA) and a CFX96 Real-Time PCR Detection System (Bio-Rad, Hercules, CA, USA), following the manufacturer’s instructions. The amplification conditions were 95 °C 2 min, (15 s at 95 °C, 1 min at the appropriate annealing temperature Ta, as in Table 5) ×40 cycles. The rplU gene, coding the 50 S ribosomal protein, was used to normalize qPCR data as in [36]. Fold changes were calculated by the 2^−ΔΔCT analysis method.

[2] = test system: P. aeruginosa ATCC 25668, mucoid strain; assay: Degradation of pre-formed 24 h old biofilm, crystal violet; type: cell-based, Pseudomonas aeruginosa; settings: for mean decrement in biomass of pre-formed biofilm: 1 h treatment of 24 h old biofilm
Procedure: One hundred μL of bacteria (1 × 10^6 cells/mL), derived from a fresh ON culture, were seeded in a sterile non-treated polystyrene 96-well plate (Corning) and incubated for 24 h at 37 °C without agitation. […] Evaluation of biofilm biomass was performed using a crystal violet assay as described above (Section 4.8). Experiments were performed two-four times.

[3] = test system: human red blood cells (hRBCs); type: cell-based; settings: for MHC (minimum hemolytic concentration causing 5% hemolysis of hRBCs): red cells of human, 1 h
Procedure: The peptide hemolytic activity was evaluated against human red blood cells (hRBCs) using the Haemolysis Assay Kit (HaemoScan, Groningen, The Netherlands), following the manufacturer’s instructions. 180 μL of hRBC solution were incubated 1 h at 37 °C with 20 μL of serially diluted L- and D-CecB Q53 peptides (final concentrations of 5, 10, 25, 50, 100, 200 µM) in triplicate. As hemolysis positive and negative controls, hRBC solutions incubated, respectively, with 0.2% Triton X and PBS, were followed in parallel. After centrifugation 10 min at 10,000× g, each supernatant was diluted 1:10 in the Assay Buffer and read at 450 nm with a microplate reader.
Hemolysis was evaluated according to the following equation: Hemolysis (%)=ODCecB−OD0/ODCtrl−OD0×100, where ODCecB is the OD in the presence of the peptide, ODCtrl is the OD of treated controls (0.2% Triton X), and OD0 is the background absorbance. The experiment was performed at least twice.

[4] = test system: P. aeruginosa biofilms (ATCC 25668); assay: Confocal live/dead staining of biofilm-embedded cells; type: cell-based, Pseudomonas aeruginosa; settings: 1 h treatment with 1 MIC (2.2 µM) of 24 h-old biofilm; SYTO 9 / Propidium Iodide
Procedure: Bacteria cells (1 × 10^6 cells/mL) were grown in Permanox four-wells chamber slide systems (1.8 cm^2/well; Nunc® Lab-Tek® Chamber Slide™ system) at 37 °C for 24 h without agitation to allow biofilm formation. After washing, biofilms were treated with 2.2 μM L- or D-Q53 CecB peptide for 1 h at 37 °C without agitation. Negative controls, treated with LB only, were followed in parallel.
To visualize live/dead bacteria, samples were stained with 12. 5 μM SYTO™ 9 (Thermo Fisher Scientific) (green, total cells) and 70 μM Propidium Iodide (Merck) (red, dead cells) for 30 min. After washing with PBS, samples were mounted in VECTASHIELD® mounting medium (Vector Laboratories) and observed using a Leica TCS SP5 II confocal microscope, using a ×63 oil immersion objective and a digital magnification of ×3. Optical sections (Z-series) were taken at 0.13 μm intervals. For each condition, experiments were repeated at least twice.
To detect bacteria (green), excitation and emission wavelengths were 488 and 500–530 nm, respectively. EPS was visualized using a 405 nm wavelength for excitation and 413–480 nm for emission (blue); to detect proteins or Propidium Iodide (red), a 543 nm wavelength for excitation and 590–610 nm for emission were used. Post-acquisition analyses were performed with Fiji (http://fiji.sc/wiki/index.php, downloaded on 4 April 2022). […]

[5] = test system: P. aeruginosa ATCC 27853 and ATCC 25668 strains; assay: Growth curves with sub-MIC concentrations; type: cell-based, Pseudomonas aeruginosa; settings: growth curves 14 h, OD600, AUC vs untreated; both strains; 1 MIC = 2.2 μM
Procedure: Microbial suspensions in LB medium (positive controls) and wells with LB medium only (negative controls) were followed in parallel. Plates were incubated at 37 °C with agitation (300 rpm), and the absorbance was measured every 2 h for 14 h at 600 nm. For each time point, a ΔOD600 was determined by subtracting the OD600 recorded at time 0 from those obtained at the different time-points. To establish the peptide concentration not inhibiting bacterial growth, for each treatment, the Area Under the Curve (AUC) was calculated and compared to that of untreated controls.
Supplementary Figure S3. Growth curves of P. aeruginosa treated with of L-Q 53 CecB and D-Q 53 CecB peptides at sub-MIC concentrations. ATCC 27853 strain treated with (A) L-Q 53 CecB and (B) D-Q 53 CecB. ATCC 25668 strain treated with (C) L-Q 53 CecB and (D) D-Q 53 CecB. Bacteria treated with 1 MIC L- or D- Q53 CecB peptides and untreated bacteria represent positive and negative controls, respectively. One-w ay ANOVA followed by post-h oc Dunnett’s tests […]
samples and negative controls [A TCC 27853: (A) F4, 10 = 257.8, p < 0.0001; 1/2 MIC L-Q 53 CecB vs negative controls:
Dunnett’s test p > 0.05, ns; (B) F 4,10 = 256.9, p < 0.0001; 1/4 MIC D-Q 53 CecB vs negative controls: Dunnett’s test p > 0.05, […]
= 43.58, p < 0.0001; 1/4 MIC D-Q 53 CecB vs negative controls: Dunnett’s test p > 0.05, ns]. […]

Row | Compound | expression level of fimX [1] | expression level of lasI [1] | expression level of rpoS [1] | expression of algD [1] | expression of pelA [1] | transcription of pslA [1] | mean decrement in biomass of pre-formed biofilm ([2]; 1/2 MIC (1.1 μM)) [%] | reduction of pre-formed biofilm ([2]; 1/4 MIC (0.55 μM), 1 h) | mean decrement in biomass of pre-formed biofilm ([2]; 8 MIC (17.6 μM)) [%] | mean hemolysis ([3]; 100 µM) [%] | MHC (minimum hemolytic concentration causing 5% hemolysis of hRBCs) [3] [µM] | red/green (dead/total) cell ratio vs untreated controls [4] | sub-MIC concentration not inhibiting bacterial growth [5] | reduction of pre-formed biofilm biomass ([2]; 4 MIC, 1 h, single sample) | reduction of pre-formed biofilm biomass at all tested concentrations ([2]; 1 h, L-Q53 CecB 1/2 to 8 MIC (except 4 MIC), tobramycin 1 to 8 MIC)
1 | CC[C@@H](C)[C@@H](NC(=O)[C@@H](C)NC(=O)[C@@H](CCCCN)NC(=O)[C@@H](C)NC(=O)[C@@H](CO)NC(=O)CNC(=O)[C@@H](CC(C)C)NC(=O)[C@H](NC(=O)[C@@H](CCC(N)=O)NC(=O)[C@H](NC(=O)[C@@H](C)NC(=O)[C@H]1CCCN1C(=O)CNC(=O)[C@@H](C)NC(=O)[C@@H](CCCCN)NC(=O)[C@H](NC(=O)[C@H](NC(=O)CNC(=O)[C@@H](CC(=O)O)NC(=O)[C@@H](CCCNC(=N)N)NC(=O)[C@H](NC(=O)[C@@H](CC(N)=O)NC(=O)[C@@H](CCCNC(=N)N)NC(=O)CNC(=O)[C@@H](CCSC)NC(=O)[C@@H](CCCCN)NC(=O)[C@@H](CCC(=O)O)NC(=O)[C@H](NC(=O)[C@@H](CCCCN)NC(=O)[C@@H](CCCCN)NC(=O)[C@@H](Cc1ccccc1)NC(=O)[C@H](NC(=O)[C@@H](CCCCN)NC(=O)[C@@H](Cc1c[nH]c2ccccc12)NC(=O)[C@H](N)CCCNC(=N)N)[C@H](C)CC)[C@H](C)CC)[C@H](C)CC)[C@H](C)CC)C(C)C)[C@H](C)CC)C(C)C)C(N)=O [D-Q53 CecB] (H-[dR][dW][dK][dI][dF][dK][dK][dI][dE][dK][dM]G[dR][dN][dI][dR][dD]G[dI][dV][dK][dA]G[dP][dA][dI][dQ][dV][dL]G[dS][dA][dK][dA][dI]-NH2; N-terminus and C-terminus assumed) | not significantly different | did not significantly alter | did not significantly alter | significantly lower | significantly lower | did not affect | 38 | lost its ability to reduce pre-formed biofilms | 52 | 5.9 | 100 | Significant increments | 1/4 | – | –
2 | RWKIFKKIEKMGRNIRDGIVKAGPAIQVLGSAKAI-NH2 [L-Q53 CecB] | not significantly different | did not significantly alter | did not significantly alter | None of the analyzed genes were altered | None of the analyzed genes were altered | did not affect | – | – | – | – | >200 | Significant increments | 1/2 | significant biofilm biomass decrements | did not significantly reduce biofilm biomass
